From patent US20250255867A1 (Kadmon Corporation, LLC, priority 2022, published 2025)

Procedure: All responses were assessed by the investigators.
Reported Adverse Events. […] All-cause mortality data collected during the study were assessed for all enrolled participants. Disease progression related death was not reported as AE.
Number of Participants With Treatment-emergent Adverse Events (TEAEs), and Treatment-emergent Serious Adverse Events (TESAEs). […] TEAEs included both SAEs and non-SAEs. […] Analysis was performed on safety population which included all participants who received at least 1 dose of study medication.

CC(C)NC(=O)COc1cccc(-c2nc(Nc3ccc4[nH]ncc4c3)c3ccccc3n2)c1 [Belumosudil, 2-{3-[4-(1H-indazol-5-ylamino)-2-quinazolinyl]phenoxy}-N-(propan-2-yl) acetamide]
(0%): Actinic keratosis: Affected/At Risk (%) (Cohort 1 200 mg QD) | Asthenia: Affected/At Risk (%) (Cohort 1 200 mg QD) | Back pain: Affected/At Risk (%) (Cohort 1 200 mg QD) | Balance disorder: Affected/At Risk (%) (Cohort 1 200 mg QD) | Basal cell carcinoma: Affected/At Risk (%) (Cohort 1 200 mg QD) | Blister: Affected/At Risk (%) (Cohort 1 200 mg QD) | Blood chloride decreased: Affected/At Risk (%) (Cohort 1 200 mg QD) | Blood creatine increased: Affected/At Risk (%) (Cohort 1 200 mg QD) | Bronchial secretion retention: Affected/At Risk (%) (Cohort 1 200 mg QD) | Conjunctival haemorrhage: Affected/At Risk (%) (Cohort 1 200 mg QD) | Conjunctivitis: Affected/At Risk (%) (Cohort 1 200 mg QD) | Contrast media allergy: Affected/At Risk (%) (Cohort 1 200 mg QD) | Corneal infection: Affected/At Risk (%) (Cohort 1 200 mg QD) | Depression: Affected/At Risk (%) (Cohort 1 200 mg QD)
6: Blood alkaline phosphatase increased: # Events (Cohort 1 200 mg QD)
(35.29%): Alanine aminotransferase increased: Affected/At Risk (%) (Cohort 1 200 mg QD)
2: Abdominal pain: # Events (Cohort 1 200 mg QD) | Adrenal insufficiency: # Events (Cohort 1 200 mg QD) | Anal incontinence: # Events (Cohort 1 200 mg QD) | Blood cholesterol increased: # Events (Cohort 1 200 mg QD) | Contusion: # Events (Cohort 1 200 mg QD) | Dehydration: # Events (Cohort 1 200 mg QD)
(5.88%): Abdominal distension: Affected/At Risk (%) (Cohort 1 200 mg QD) | Abdominal pain upper: Affected/At Risk (%) (Cohort 1 200 mg QD) | Acute kidney injury: Affected/At Risk (%) (Cohort 1 200 mg QD) | Acute respiratory distress syndrome: Affected/At Risk (%) (Cohort 1 200 mg QD) | Adrenal insufficiency: Affected/At Risk (%) (Cohort 1 200 mg QD) | Anal incontinence: Affected/At Risk (%) (Cohort 1 200 mg QD) | Anxiety: Affected/At Risk (%) (Cohort 1 200 mg QD) | Arthralgia: Affected/At Risk (%) (Cohort 1 200 mg QD) | Atelectasis: Affected/At Risk (%) (Cohort 1 200 mg QD) | Benign prostatic hyperplasia: Affected/At Risk (%) (Cohort 1 200 mg QD) | Blepharitis: Affected/At Risk (%) (Cohort 1 200 mg QD) | Blood cholesterol increased: Affected/At Risk (%) (Cohort 1 200 mg QD) | Blood creatine phosphokinase increased: Affected/At Risk (%) (Cohort 1 200 mg QD) | Blood creatinine increased: Affected/At Risk (%) (Cohort 1 200 mg QD) | Blood loss anaemia: Affected/At Risk (%) (Cohort 1 200 mg QD) | Bronchitis: Affected/At Risk (%) (Cohort 1 200 mg QD) | Bronchoscopy: Affected/At Risk (%) (Cohort 1 200 mg QD) | Catheter site haemorrhage: Affected/At Risk (%) (Cohort 1 200 mg QD) | Chills: Affected/At Risk (%) (Cohort 1 200 mg QD) | Chronic kidney disease: Affected/At Risk (%) (Cohort 1 200 mg QD) | Constipation: Affected/At Risk (%) (Cohort 1 200 mg QD) | Corneal abrasion: Affected/At Risk (%) (Cohort 1 200 mg QD) | Cough: Affected/At Risk (%) (Cohort 1 200 mg QD)
0: Actinic keratosis: # Events (Cohort 1 200 mg QD) | Asthenia: # Events (Cohort 1 200 mg QD) | Back pain: # Events (Cohort 1 200 mg QD) | Balance disorder: # Events (Cohort 1 200 mg QD) | Basal cell carcinoma: # Events (Cohort 1 200 mg QD) | Blister: # Events (Cohort 1 200 mg QD) | Blood chloride decreased: # Events (Cohort 1 200 mg QD) | Blood creatine increased: # Events (Cohort 1 200 mg QD) | Bronchial secretion retention: # Events (Cohort 1 200 mg QD) | Conjunctival haemorrhage: # Events (Cohort 1 200 mg QD) | Conjunctivitis: # Events (Cohort 1 200 mg QD) | Contrast media allergy: # Events (Cohort 1 200 mg QD) | Corneal infection: # Events (Cohort 1 200 mg QD) | Depression: # Events (Cohort 1 200 mg QD)
8: Aspartate aminotransferase increased: # Events (Cohort 1 200 mg QD)
1/17: Abdominal distension: Affected/At Risk (Cohort 1 200 mg QD) | Abdominal pain upper: Affected/At Risk (Cohort 1 200 mg QD) | Acute kidney injury: Affected/At Risk (Cohort 1 200 mg QD) | Acute respiratory distress syndrome: Affected/At Risk (Cohort 1 200 mg QD) | Adrenal insufficiency: Affected/At Risk (Cohort 1 200 mg QD) | Anal incontinence: Affected/At Risk (Cohort 1 200 mg QD) | Anxiety: Affected/At Risk (Cohort 1 200 mg QD) | Arthralgia: Affected/At Risk (Cohort 1 200 mg QD) | Atelectasis: Affected/At Risk (Cohort 1 200 mg QD) | Benign prostatic hyperplasia: Affected/At Risk (Cohort 1 200 mg QD) | Blepharitis: Affected/At Risk (Cohort 1 200 mg QD) | Blood cholesterol increased: Affected/At Risk (Cohort 1 200 mg QD) | Blood creatine phosphokinase increased: Affected/At Risk (Cohort 1 200 mg QD) | Blood creatinine increased: Affected/At Risk (Cohort 1 200 mg QD) | Blood loss anaemia: Affected/At Risk (Cohort 1 200 mg QD) | Bronchitis: Affected/At Risk (Cohort 1 200 mg QD) | Bronchoscopy: Affected/At Risk (Cohort 1 200 mg QD) | Catheter site haemorrhage: Affected/At Risk (Cohort 1 200 mg QD) | Chills: Affected/At Risk (Cohort 1 200 mg QD) | Chronic kidney disease: Affected/At Risk (Cohort 1 200 mg QD) | Constipation: Affected/At Risk (Cohort 1 200 mg QD) | Corneal abrasion: Affected/At Risk (Cohort 1 200 mg QD) | Cough: Affected/At Risk (Cohort 1 200 mg QD)
(23.53%): Blood alkaline phosphatase increased: Affected/At Risk (%) (Cohort 1 200 mg QD)
9: Diarrhoea: # Events (Cohort 1 200 mg QD)
77%: Patients with relative dose intensity >95% (Cohort 1)
5/17: Anaemia: Affected/At Risk (Cohort 1 200 mg QD) | Aspartate aminotransferase increased: Affected/At Risk (Cohort 1 200 mg QD)
4/17: Blood alkaline phosphatase increased: Affected/At Risk (Cohort 1 200 mg QD)
12: Alanine aminotransferase increased: # Events (Cohort 1 200 mg QD)
1: Abdominal distension: # Events (Cohort 1 200 mg QD) | Abdominal pain upper: # Events (Cohort 1 200 mg QD) | Acute respiratory distress syndrome: # Events (Cohort 1 200 mg QD) | Anxiety: # Events (Cohort 1 200 mg QD) | Arthralgia: # Events (Cohort 1 200 mg QD) | Atelectasis: # Events (Cohort 1 200 mg QD) | Benign prostatic hyperplasia: # Events (Cohort 1 200 mg QD) | Blepharitis: # Events (Cohort 1 200 mg QD) | Blood creatine phosphokinase increased: # Events (Cohort 1 200 mg QD) | Blood creatinine increased: # Events (Cohort 1 200 mg QD) | Blood loss anaemia: # Events (Cohort 1 200 mg QD) | Bronchitis: # Events (Cohort 1 200 mg QD) | Bronchoscopy: # Events (Cohort 1 200 mg QD) | Catheter site haemorrhage: # Events (Cohort 1 200 mg QD) | Chills: # Events (Cohort 1 200 mg QD) | Chronic kidney disease: # Events (Cohort 1 200 mg QD) | Constipation: # Events (Cohort 1 200 mg QD) | Corneal abrasion: # Events (Cohort 1 200 mg QD) | Cough: # Events (Cohort 1 200 mg QD)
6/17: Alanine aminotransferase increased: Affected/At Risk (Cohort 1 200 mg QD)
4: Acute kidney injury: # Events (Cohort 1 200 mg QD) | Decreased appetite: # Events (Cohort 1 200 mg QD)
2/17: Abdominal pain: Affected/At Risk (Cohort 1 200 mg QD) | Contusion: Affected/At Risk (Cohort 1 200 mg QD) | Decreased appetite: Affected/At Risk (Cohort 1 200 mg QD) | Dehydration: Affected/At Risk (Cohort 1 200 mg QD)
0/17: Actinic keratosis: Affected/At Risk (Cohort 1 200 mg QD) | Asthenia: Affected/At Risk (Cohort 1 200 mg QD) | Back pain: Affected/At Risk (Cohort 1 200 mg QD) | Balance disorder: Affected/At Risk (Cohort 1 200 mg QD) | Basal cell carcinoma: Affected/At Risk (Cohort 1 200 mg QD) | Blister: Affected/At Risk (Cohort 1 200 mg QD) | Blood chloride decreased: Affected/At Risk (Cohort 1 200 mg QD) | Blood creatine increased: Affected/At Risk (Cohort 1 200 mg QD) | Bronchial secretion retention: Affected/At Risk (Cohort 1 200 mg QD) | Conjunctival haemorrhage: Affected/At Risk (Cohort 1 200 mg QD) | Conjunctivitis: Affected/At Risk (Cohort 1 200 mg QD) | Contrast media allergy: Affected/At Risk (Cohort 1 200 mg QD) | Corneal infection: Affected/At Risk (Cohort 1 200 mg QD) | Depression: Affected/At Risk (Cohort 1 200 mg QD)
(11.76%): Abdominal pain: Affected/At Risk (%) (Cohort 1 200 mg QD) | Contusion: Affected/At Risk (%) (Cohort 1 200 mg QD) | Decreased appetite: Affected/At Risk (%) (Cohort 1 200 mg QD) | Dehydration: Affected/At Risk (%) (Cohort 1 200 mg QD)
14: Anaemia: # Events (Cohort 1 200 mg QD)
(29.41%): Anaemia: Affected/At Risk (%) (Cohort 1 200 mg QD) | Aspartate aminotransferase increased: Affected/At Risk (%) (Cohort 1 200 mg QD)
